Laboratory results: patent US20160220567A1, “COMPOSITION FOR TREATING OR PREVENTING BONE DISEASES, COMPRISING HALOFUGINONE AS ACTIVE INGREDIENT” (THE CATHOLIC UNIVERSITY OF KOREA INDUSTRY-ACADEMIC …, priority 2013, published 2016)

How the values were obtained:
[1] = test system: Th17- and Treg cells in splenocytes; assay: Th17 and Treg cells, pSTAT3 and pSTAT5 in splenocytes of CIA mice by immunostaining and confocal microscope; type: in vivo, mouse
Procedure: For the construction of a mouse model with collagen-induced arthritis (hereinafter, referred to as “CIA”), a 6-week old male DBA/1J mouse was subjected to primary immunization by intradermal injection after mixing the bovine type II collagen (hereinafter, referred to as “CII”) and complete Freud's adjuvant (CFA) in an amount of 100 μL, respectively. After a week thereafter, halofuginone was injected intraperitoneally at 3 day intervals at a concentration of 100 μg/kg and 500 μg/kg, respectively (9 weeks).
To examine the effect of halofuginone treatment in an animal model on Th17 and Treg factors, the measurement was performed using a confocal microscope after the immunostaining. Specifically, the spleens of the mice in the experimental group and control group in Examples were collected and embedded with an OCT compound, and the tissues rapidly cooled using liquid nitrogen were sliced into a thickness of 7 μm using a cryo microtome, and attached to slides. The sliced sections attached to the slides were fixed with acetone, and non-specific binding was blocked by reacting with 10% normal goat serum for 30 minutes. The first antibodies, i.e., FITC-labeled anti-Foxp3 Ab, PElabeled anti-IL-17 Ab APC-labeled anti-CD4 Ab, Allophycocyanin-labeled anti-CD25 Ab (Biolegend), biotinylated anti-CD4 Ab (BD Biosciences, San Jose, Calif., USA), were diluted in PBS (pH 7.5) at a 1:100 ratio and reacted at 4° C. overnight. On the next day, the resultant was washed with PBS and reacted with streptavidin cy-3 at room temperature for 2 hours. The stained tissues were analyzed using a confocal microscope (LSM 510 Meta. Zeiss, Gottingen, Germany), and the number of IL-17+ cells and Foxp3+ cells were scored under a microscopic observation, and the results are shown in graphs. Meanwhile, pSTAT3 and pSTAT5 were immunostained in the same manner as described above and the measurement was performed using a confocal microscope, and in particular, PE-conjugated anti-phospho-Stat3 (Y705 and S727; 1:50), and Alexa Fluor 488-conjugated anti-phospho-Stat5 (Y694; 1:100) (all from BD Biosciences) antibodies were used.

osteoclasts = assay: Cell cycle during osteoclast differentiation by 7-AAD and BrdU staining; type: cell-based, mouse; conditions: FIG. 5D
From the text: Murine bone marrow cells were differentiated for 5 days by stimulating with M-CSF, RANKL, and halofuginone and subjected to TRAP staining according to the method described in Example <1-8> to confirm the number of TRAP positive cells. Additionally, the expression of c-Fos, JunB, and Jpd2 in the bone marrow cells were confirmed by real-time PCR according to the method described in Example <1-6>. Meanwhile, to examine the effect of halofuginone on cell cycle during the process of osteoclast differentiation, osteoclasts were subjected to 7-AAD and BrdU staining.

[2] = test system: osteoclasts from mononuclear cells of human peripheral blood; assay: Bone resorption potential by osteoclasts in human cells; type: cell-based; conditions: FIG. 6D
Procedure: To examine the effect of halofuginone on the bone resorption potential by osteoclasts, murine bone marrow cells were cultured in Dentine slice, and the cultured cells were stimulated with M-CSF, RANKL, and halofuginone, and cultured for 21 additional days. Then, the cells were removed using 5% sodium hypochlorite solution, subjected to Hematoxylin staining, and the bone resorption lacunae formed by the bone resorption of osteoclasts were photographed.
The effect of halofuginone on the bone resorption potential by osteoclasts was observed using the mononuclear cells of human peripheral blood, in the same manner as described in Example <2-7>.

[3] = CD4+ cells of splenocytes of CIA mice, immunostaining
[4] = splenocytes of CIA mice injected with halofuginone, FIG. 2A

## O=C(C[C@H]1NCCC[C@@H]1O)Cn1cnc2cc(Br)c(Cl)cc2c1=O (racemic) [halofuginone]
[1]; [3]
  expression of pSTAT3: decreased
  expression of pSTAT5: increased
[1]; [4]
  number of Th17 cells: decreased
  number of Treg cells: increased
osteoclasts; 7-AAD and BrdU staining
  progress from G0/G1 into S phase: increased
osteoclasts
  expression of ccnd1 encoding Cyclin D1: increased
[2]
  bone resorption potential: significantly reduced
